Converted amounts (≈) assume the structure as drawn.
Assays:
[1] = test system: Streptococcus pyogenes (Isolate ID ATCC 51339); assay: Antibacterial activity, MIC, S. pyogenes; type: cell-based; settings: Streptococcus pyogenes, ATCC51339, Gram positive strain; broth microdilution or agar dilution
Experimental: (§1) Bacterial Assay: Determination of Antibacterial Activity
(§2) Compounds of the invention were tested for antimicrobial activity by susceptibility testing in liquid or on solid media. MICs for compounds against each strain were determined by the broth microdilution or agar dilution method according to the guidelines of the Clinical Laboratories and Standards Institute, formerly the National Committee for Clinical Laboratory Standards (Clinical Laboratories and Standards Institute. Methods for Dilution Antimicrobial Susceptibility Tests for Bacteria That Grow Aerobically; Approved Standard—Seventh Edition. Document M7-A7. CLSI, Wayne, Pa., 2006; Clinical Laboratories and Standards Institute. The gram positive bacterial strains tested include S. aureus (Staphylococcus aureus (Isolate ID ATCC 29213)), E. faecalis (Enterococcus faecalis (Isolate ID ATCC 29212)) and S. pyogenes (Streptococcus pyogenes (Isolate ID ATCC 51339)). The gram negative bacterial strains tested include H. influenzae (Haemophilus influenzae (Isolate ID ATCC 49247))

[2] = physchem; settings: kinetic from dmso stock
Experimental: Turbimetric Assay: Determination of Solubility
The solubility of the compounds was measured using a turbidimetric method. A series of doubling dilutions of compounds were prepared in neat dimethyl sulfoxide (DMSO). 5 μl samples were diluted twenty-fold into 95 μl volumes of 100 mM citrate buffer (pH 4), phosphate buffered saline (PBS, pH 7.4) or carbonate-bicarbonate buffer (pH 9) in microtitre assay plates and allowed to reach equilibrium at room temperature for 24 hours. The absorbance within each well of the plate was read spectrophotometrically at a wavelength of 620 nm. A precipitate forms when the maximum aqueous solubility level is reached. The value quoted is the highest concentration where the compound was in solution i.e. where no measurable precipitate was present. […] ND=not determined

[3] = test system: Staphylococcus aureus (Isolate ID ATCC 29213); assay: Antibacterial activity, MIC, S. aureus; type: cell-based; settings: Staphylococcus aureus, ATCC29213, Gram positive strain; broth microdilution or agar dilution
Experimental: as §1, §2

[4] = test system: Haemophilus influenzae (Isolate ID ATCC 49247); assay: Antibacterial activity, MIC, H. influenzae; type: cell-based; settings: Haemophilus influenzae, ATCC49247; Gram negative strain; broth microdilution or agar dilution
Experimental: as §1, §2

[5] = pH 7.4, aqueous buffer, Max Solubility
[6] = pH 7.4, aqueous buffer, Solubility (pH 7.4)
[7] = pH 7.4, aqueous buffer, Solubility Range
[8] = pH 7.4, aqueous buffer, Solubility Range (maximum solubility)
[9] = pH 9, aqueous buffer, Max Solubility
[10] = pH 9, aqueous buffer, Solubility Range (maximum solubility)

Row | Structure (SMILES) | MIC [1] [µg/mL] | solubility at 24 h [2, 5] [µg/mL] | solubility at 24 h [2, 6] [µg/mL] | solubility at 24 h [2, 7] [µg/mL] | solubility at 24 h [2, 8] [µg/mL] | MIC [3] [µg/mL] | MIC [4] [µg/mL] | solubility at 24 h [2, 9] [µg/mL] | solubility at 24 h [2, 10] [µg/mL]
1 | CCNC(=O)Nc1nc2cc(-c3cnc(N4CCC(C)(C(=O)O)CC4)nc3)cc(CN3CCOCC3)c2s1 [Compound 158, 1-[5-[2-(ethylcarbamoylamino)-7-(morpholinomethyl)-1,3-benzothiazol-5-yl]pyrimidin-2-yl]-4-methyl-piperidine-4-carboxylic acid] | 1 to 16 (≈ 1.85 to 29.6 µM) | ≥ 800 | ≥ 800 | > 800 | > 800 | 1 to 16 (≈ 1.85 to 29.6 µM) | > 16 | – | –
2 | CCNC(=O)Nc1nc2cc(-c3cnc(N4CCC(C)(C(=O)O)CC4)nc3)cc(C(=O)N3CCOCC3)c2s1 [Compound 159, 1-[5-[2-(ethylcarbamoylamino)-7-(morpholine-4-carbonyl)-1,3-benzothiazol-5-yl]pyrimidin-2-yl]-4-methyl-piperidine-4-carboxylic acid] | > 16 | 400 (≈ 722 µM) | 400 (≈ 722 µM) | 400 to 800 (≈ 722 to 1440 µM) | 400 to 800 (≈ 722 to 1440 µM) | > 16 | > 16 | – | –
3 | CCNC(=O)Nc1nc2cc(-c3cnc(N4CCC(C)(C(=O)O)CC4)nc3)nc(-c3ccccn3)c2s1 [Compound 162, 1-[5-[2-(ethylcarbamoylamino)-4-(2-pyridyl)thiazolo[5,4-c]pyridin-6-yl]pyrimidin-2-yl]-4-methyl-piperidine-4-carboxylic acid] | ≤ 0.25 | – | 200 (≈ 386 µM) | 12.5 to 400 (≈ 24.1 to 771 µM) | – | ≤ 0.25 | 1 to 16 (≈ 1.93 to 30.9 µM) | 400 (≈ 771 µM) | 400 to 800 (≈ 771 to 1540 µM)
4 | CCNC(=O)Nc1nc2cc(-c3cnc(N4CCCC(C)(C(=O)O)CC4)nc3)cc(-c3ccccn3)c2s1 (centres unmarked) [Compound 166] | ≤ 0.25 | ≥ 800 | ≥ 800 | > 800 | > 800 | ≤ 0.25 | 1 to 16 (≈ 1.88 to 30.1 µM) | – | –
5 | CCNC(=O)Nc1nc2cc(-c3ccnc(N4CCC(C)(C(=O)O)CC4)c3)cc(-c3ccccn3)c2s1 [Compound 182] | ≤ 0.25 | – | 200 (≈ 387 µM) | 12.5 to 400 (≈ 24.2 to 774 µM) | – | 1 to 16 (≈ 1.94 to 31 µM) | > 16 | ≥ 800 | > 800
6 | CCNC(=O)Nc1nc2cc(-c3cnc(N4CCC(C)(C(=O)NS(C)(=O)=O)CC4)nc3)cc(-c3ccccn3)c2s1 [Compound 186] | ≤ 0.25 | ≥ 800 | ≥ 800 | > 800 | > 800 | 1 to 16 (≈ 1.68 to 26.9 µM) | 1 to 16 (≈ 1.68 to 26.9 µM) | – | –
7 | CCNC(=O)Nc1nc2cc(-c3cnc(N4CCC(C)(C(=O)O)CC4)nc3)cc(/C(C)=N/OCCO)c2s1 [Compound 187] | 0.25 to 1 (≈ 0.462 to 1.85 µM) | – | ≥ 800 | > 800 | – | 1 to 16 (≈ 1.85 to 29.5 µM) | 1 to 16 (≈ 1.85 to 29.5 µM) | ≥ 800 | > 800
8 | CCNC(=O)Nc1nc2cc(-c3cnc(N4CCC(C)(C(=O)O)CC4)nc3)cc(/C(C)=N/OCCOC)c2s1 [Compound 188] | 1 to 16 (≈ 1.8 to 28.8 µM) | ≥ 800 | ≥ 800 | > 800 | > 800 | 1 to 16 (≈ 1.8 to 28.8 µM) | > 16 | – | –
9 | CCNC(=O)Nc1nc2cc(-c3cnc4c(c3)OC(C)(C(=O)O)C(=O)N4)cc(-c3ccccn3)c2s1 (centres unmarked) [Compound 190, 7-[2-(ethylcarbamoylamino)-7-(2-pyridyl)-1,3-benzothiazol-5-yl]-2-methyl-3-oxo-4H-pyrido[3,2-b][1,4]oxazine-2-carboxylic acid] | 0.25 to 1 (≈ 0.496 to 1.98 µM) | 400 (≈ 793 µM) | 400 (≈ 793 µM) | 400 to 800 (≈ 793 to 1590 µM) | 400 to 800 (≈ 793 to 1590 µM) | 0.25 to 1 (≈ 0.496 to 1.98 µM) | > 16 | – | –

Further lines, results first:

Row | MIC [1] [µg/mL] | solubility at 24 h [2, 5] [µg/mL] | solubility at 24 h [2, 6] [µg/mL] | solubility at 24 h [2, 7] [µg/mL] | solubility at 24 h [2, 8] [µg/mL] | MIC [3] [µg/mL] | MIC [4] [µg/mL] | solubility at 24 h [2, 9] [µg/mL] | solubility at 24 h [2, 10] [µg/mL] | Structure (SMILES)
10 | 1 to 16 (≈ 2.01 to 32.1 µM) | 6.25 (≈ 12.5 µM) | 6.25 (≈ 12.5 µM) | < 12.5 | < 12.5 | 1 to 16 (≈ 2.01 to 32.1 µM) | 1 to 16 (≈ 2.01 to 32.1 µM) | – | – | CCNC(=O)Nc1nc2cc(-c3cnc(N4CCC(C)(C(=O)OCC)CC4)nc3)c(OC)cc2s1 [Compound 191, Ethyl 1-[5-[2-(ethylcarbamoylamino)-6-methoxy-1,3-benzothiazol-5-yl]pyrimidin-2-yl]-4-methyl-piperidine-4-carboxylate]
11 | 1 to 16 (≈ 1.83 to 29.3 µM) | ≥ 800 | ≥ 800 | > 800 | > 800 | 1 to 16 (≈ 1.83 to 29.3 µM) | 1 to 16 (≈ 1.83 to 29.3 µM) | – | – | CCNC(=O)Nc1nc2cc(-c3cnc(C(=O)N4CCC(C)(C(=O)O)CC4)nc3)cc(-c3ccccn3)c2s1 [Compound 192]
12 | 1 to 16 (≈ 2.01 to 32.2 µM) | ≥ 800 | ≥ 800 | > 800 | > 800 | 1 to 16 (≈ 2.01 to 32.2 µM) | 1 to 16 (≈ 2.01 to 32.2 µM) | – | – | CCNC(=O)Nc1nc2cc(-c3cnc(N4CCC(CC)(C(=O)O)CC4)nc3)cc(C(N)=O)c2s1 [Compound 193, 1-[5-[7-carbamoyl-2-(ethylcarbamoylamino)-1,3-benzothiazol-5-yl]pyrimidin-2-yl]-4-ethyl-piperidine-4-carboxylic acid]
13 | 1 to 16 (≈ 1.89 to 30.3 µM) | ≥ 800 | ≥ 800 | > 800 | > 800 | 1 to 16 (≈ 1.89 to 30.3 µM) | 1 to 16 (≈ 1.89 to 30.3 µM) | – | – | CCNC(=O)Nc1nc2cc(-c3cnc(N4CCC(C)(C(=O)O)CC4)nc3)cc(COCCOC)c2s1 [Compound 194]
14 | ≤ 0.25 | ≥ 800 | ≥ 800 | > 800 | > 800 | 1 to 16 (≈ 1.93 to 30.9 µM) | 1 to 16 (≈ 1.93 to 30.9 µM) | – | – | CCNC(=O)Nc1nc2cc(-c3cnnc(N4CCC(C)(C(=O)O)CC4)c3)cc(-c3ccccn3)c2s1 [Compound 195, 1-[5-[2-(ethylcarbamoylamino)-7-(2-pyridyl)-1,3-benzothiazol-5-yl]pyridazin-3-yl]-4-methyl-piperidine-4-carboxylic acid]
15 | 1 to 16 (≈ 1.87 to 29.9 µM) | – | 50 (≈ 93.4 µM) | 12.5 to 400 (≈ 23.3 to 747 µM) | – | 1 to 16 (≈ 1.87 to 29.9 µM) | 1 to 16 (≈ 1.87 to 29.9 µM) | 100 (≈ 187 µM) | 12.5 to 400 (≈ 23.3 to 747 µM) | CCNC(=O)Nc1nc2cc(-c3cnc(NC4COC(C)(C(=O)O)OC4)nc3)cc(-c3ccccn3)c2s1 (centres unmarked) [Compound 196]
16 | 0.25 to 1 (≈ 0.477 to 1.91 µM) | ≥ 800 | ≥ 800 | > 800 | > 800 | 1 to 16 (≈ 1.91 to 30.6 µM) | 1 to 16 (≈ 1.91 to 30.6 µM) | – | – | CCNC(=O)Nc1nc2cc(-c3cnc(N4CCC(CC)(C(=O)O)CC4)nc3)cc(C3=NOCC3)c2s1 [Compound 197, 1-[5-[7-(4,5-dihydroisoxazol-3-yl)-2-(ethylcarbamoylamino)-1,3-benzothiazol-5-yl]pyrimidin-2-yl]-4-ethyl-piperidine-4-carboxylic acid]
17 | 1 to 16 (≈ 2.13 to 34 µM) | ≥ 800 | ≥ 800 | > 800 | > 800 | 1 to 16 (≈ 2.13 to 34 µM) | 1 to 16 (≈ 2.13 to 34 µM) | – | – | CCNC(=O)Nc1nc2cc(-c3cnc(N4CCC(C)(C(=O)O)CC4)nc3)c(OC)cc2s1 [Compound 198, 1-[5-[2-(Ethylcarbamoylamino)-6-methoxy-1,3-benzothiazol-5-yl]pyrimidin-2-yl]-4-methyl-piperidine-4-carboxylic acid]
18 | 0.25 to 1 (≈ 0.518 to 2.07 µM) | ≥ 800 | ≥ 800 | > 800 | > 800 | 1 to 16 (≈ 2.07 to 33.2 µM) | 1 to 16 (≈ 2.07 to 33.2 µM) | – | – | CCNC(=O)Nc1nc2cc(-c3cnc(N4CCC(CC)(C(=O)O)CC4)nc3)cc(C=O)c2s1 [Compound 199, 4-ethyl-1-[5-[2-(ethylcarbamoylamino)-7-formyl-1,3-benzothiazol-5-yl]pyrimidin-2-yl]piperidine-4-carboxylic acid]
19 | 1 to 16 (≈ 2.13 to 34 µM) | ≥ 800 | ≥ 800 | > 800 | > 800 | 1 to 16 (≈ 2.13 to 34 µM) | 1 to 16 (≈ 2.13 to 34 µM) | – | – | CCNC(=O)Nc1nc2cc(-c3cnc(N4CCC(C)(C(=O)O)CC4)nc3)cc(OC)c2s1 [Compound 200, 1-[5-[2-(Ethylcarbamoylamino)-7-methoxy-1,3-benzothiazol-5-yl]pyrimidin-2-yl]-4-methyl-piperidine-4-carboxylic acid]
20 | 0.25 to 1 (≈ 0.496 to 1.99 µM) | ≥ 800 | ≥ 800 | > 800 | > 800 | 1 to 16 (≈ 1.99 to 31.8 µM) | 1 to 16 (≈ 1.99 to 31.8 µM) | – | – | CCNC(=O)Nc1nc2cc(-c3cnc(N4CCC(C)(C(=O)O)C4)nc3)cc(-c3ccccn3)c2s1 (centres unmarked) [Compound 201]

From patent US9181234B2, “Antibacterial compounds” (priority 2010, dated 2015)
